Assay results taken from PMC4503722, “Novel Phenotypic Outcomes Identified for a Public Collection of Approved Drugs from a Publicly Accessible Panel of Assays” (PLoS ONE, 2015).
Like-named read-outs stand apart in the source and are kept apart here.

Experiments:
[1] = biological target: T1, hJAK2 (Homo sapiens, UniProt O60674); assay: Cerep LANCE kinase assay hJAK2 (S1 assay 33); type: biochemical; conditions: read-out: JAK2
T1 construct: purchased Cerep (LANCE kinase assay platform, contract assay)

[2] = test system: HCT116 cells treated with a GSK3β inhibitor; assay: cells; type: cell-based; conditions: Homo sapiens
[3] = test system: INS-1E cells; assay: cells; type: cell-based, rat
[4] = test system: NCI-H716 cells; assay: cells; type: cell-based, Human
[5] = biological target: T2, hFLT3 (Homo sapiens, UniProt P36888); assay: Cerep LANCE kinase assay hFLT3 (S1 assay 35); type: biochemical; conditions: read-out: FLT3
T2 construct: purchased Cerep (LANCE kinase assay platform, contract assay)

[6] = biological target: T3, hGSK3b (Homo sapiens, UniProt P49841); assay: Cerep LANCE kinase assay hGSK3b (S1 assay 34); type: biochemical; conditions: read-out: GSK3b
T3 construct: purchased Cerep (LANCE kinase assay platform, contract assay)

[7] = test system: DLD-1; assay: cells; type: cell-based; conditions: Homo sapiens
[8] = test system: SNU-C1; assay: cells; type: cell-based; conditions: Homo sapiens
[9] = biological target: T4, hKDR (Homo sapiens, UniProt P35968); assay: Cerep LANCE kinase assay hKDR (S1 assay 32); type: biochemical; conditions: read-out: KDR
T4 construct: purchased Cerep (LANCE kinase assay platform, contract assay)

[10] = test system: RKO; assay: cells; type: cell-based
[11] = test system: HCT116; assay: cells; type: cell-based; conditions: Homo sapiens
[12] = test system: HeLa cells; assay: cells; type: cell-based; conditions: for EC50: Homo sapiens, HeLa, read-out: CellCycle G2/M
[13] = test system: endothelial tube formation in co-cultures of ECFCs and ADSCs treated with VEGF; assay: cells; type: cell-based, human
[14] = biological target: T5, hp70S6K1 (RPS6KB1) (Homo sapiens, UniProt P23443); assay: Cerep LANCE kinase assay hp70S6K1 (S1 assay 31); type: biochemical; conditions: read-out: p70S6K1
T5 construct: purchased Cerep (LANCE kinase assay platform, contract assay)

[15] = test system: SW480; assay: cells; type: cell-based; conditions: Homo sapiens
[16] = test system: Colo320; assay: cells; type: cell-based; conditions: Homo sapiens
[17] = test system: HT-29; assay: cells; type: cell-based
[18] = test system: nuclear β-catenin in C2C12 cells; assay: cells; type: cell-based
[19] = HCT-116, 72 h, read-out: HCT-116 (GSK3β) viab. IC50
[20] = HCT-116, read-out: GSK3b inh pretreated_Viability ATP HCT116
[21] = Rattus norvegicus, INS-1E, read-out: Ins. sec. EC50
[22] = Homo sapiens, NCI-H716, read-out: GLP1 sec. EC50
[23] = DLD-1, 72 h, read-out: DLD-1 viab. IC50
[24] = DLD-1, read-out: Basal_Viability ATP DLD-1
[25] = SNU-C1, 72 h, read-out: SNU-C1 viab. IC50
[26] = SNU-C1, read-out: Basal_Viability ATP SNU-C1
[27] = Homo sapiens, RKO, 72 h, read-out: RKO viab. IC50
[28] = Homo sapiens, RKO, read-out: Basal_Viability ATP RKO
[29] = HCT-116, 72 h, read-out: HCT-116 viab. IC50
[30] = HCT-116, read-out: Basal_Viability ATP HCT116
[31] = Homo sapiens, read-out: Anti-Angio IC50
[32] = SW480, 72 h, read-out: SW480 viab. IC50
[33] = SW480, read-out: Basal_Viability ATP SW480
[34] = COLO 320, 72 h, read-out: Colo320 viab. IC50
[35] = COLO 320, read-out: Basal_Viability ATP Colo 320
[36] = Homo sapiens, HT-29, 72 h, read-out: HT-29 viab. IC50
[37] = Homo sapiens, HT-29, read-out: Basal_Viability ATP HT-29
[38] = Mus musculus, C2C12, read-out: Wnt Pathway
[39] = Mus musculus, C2C12, read-out: Wnt pot. EC50
[40] = Homo sapiens, read-out: Anti-Angiogenesis

T1 sequence (O60674 whole entry): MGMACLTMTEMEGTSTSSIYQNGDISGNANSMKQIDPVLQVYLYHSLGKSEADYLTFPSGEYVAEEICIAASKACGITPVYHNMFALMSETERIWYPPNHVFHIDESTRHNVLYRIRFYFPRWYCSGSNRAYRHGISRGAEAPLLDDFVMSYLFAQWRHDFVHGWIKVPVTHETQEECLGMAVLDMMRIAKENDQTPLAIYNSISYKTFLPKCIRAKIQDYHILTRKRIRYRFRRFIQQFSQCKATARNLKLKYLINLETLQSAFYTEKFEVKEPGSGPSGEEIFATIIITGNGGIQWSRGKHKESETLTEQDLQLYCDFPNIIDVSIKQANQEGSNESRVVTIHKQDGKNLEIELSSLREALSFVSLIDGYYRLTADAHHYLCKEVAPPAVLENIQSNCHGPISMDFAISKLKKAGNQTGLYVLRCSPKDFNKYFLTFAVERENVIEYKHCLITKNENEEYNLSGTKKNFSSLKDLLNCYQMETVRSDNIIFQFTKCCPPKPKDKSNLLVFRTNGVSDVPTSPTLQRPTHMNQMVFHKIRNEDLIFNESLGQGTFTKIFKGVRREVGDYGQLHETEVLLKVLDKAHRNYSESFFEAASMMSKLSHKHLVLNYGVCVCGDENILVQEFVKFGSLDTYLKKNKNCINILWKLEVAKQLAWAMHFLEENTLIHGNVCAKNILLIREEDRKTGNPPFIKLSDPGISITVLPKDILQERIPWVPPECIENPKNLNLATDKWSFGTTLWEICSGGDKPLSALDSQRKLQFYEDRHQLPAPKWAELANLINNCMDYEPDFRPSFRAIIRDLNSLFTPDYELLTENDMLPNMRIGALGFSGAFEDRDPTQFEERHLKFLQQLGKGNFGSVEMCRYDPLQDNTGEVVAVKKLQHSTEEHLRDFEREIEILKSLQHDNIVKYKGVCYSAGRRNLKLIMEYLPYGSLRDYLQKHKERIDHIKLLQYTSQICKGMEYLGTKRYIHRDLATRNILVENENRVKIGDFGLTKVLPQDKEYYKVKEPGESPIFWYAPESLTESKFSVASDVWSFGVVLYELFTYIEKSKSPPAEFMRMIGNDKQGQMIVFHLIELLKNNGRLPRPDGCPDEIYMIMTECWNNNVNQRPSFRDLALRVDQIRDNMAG
T4 sequence (P35968 20-1356): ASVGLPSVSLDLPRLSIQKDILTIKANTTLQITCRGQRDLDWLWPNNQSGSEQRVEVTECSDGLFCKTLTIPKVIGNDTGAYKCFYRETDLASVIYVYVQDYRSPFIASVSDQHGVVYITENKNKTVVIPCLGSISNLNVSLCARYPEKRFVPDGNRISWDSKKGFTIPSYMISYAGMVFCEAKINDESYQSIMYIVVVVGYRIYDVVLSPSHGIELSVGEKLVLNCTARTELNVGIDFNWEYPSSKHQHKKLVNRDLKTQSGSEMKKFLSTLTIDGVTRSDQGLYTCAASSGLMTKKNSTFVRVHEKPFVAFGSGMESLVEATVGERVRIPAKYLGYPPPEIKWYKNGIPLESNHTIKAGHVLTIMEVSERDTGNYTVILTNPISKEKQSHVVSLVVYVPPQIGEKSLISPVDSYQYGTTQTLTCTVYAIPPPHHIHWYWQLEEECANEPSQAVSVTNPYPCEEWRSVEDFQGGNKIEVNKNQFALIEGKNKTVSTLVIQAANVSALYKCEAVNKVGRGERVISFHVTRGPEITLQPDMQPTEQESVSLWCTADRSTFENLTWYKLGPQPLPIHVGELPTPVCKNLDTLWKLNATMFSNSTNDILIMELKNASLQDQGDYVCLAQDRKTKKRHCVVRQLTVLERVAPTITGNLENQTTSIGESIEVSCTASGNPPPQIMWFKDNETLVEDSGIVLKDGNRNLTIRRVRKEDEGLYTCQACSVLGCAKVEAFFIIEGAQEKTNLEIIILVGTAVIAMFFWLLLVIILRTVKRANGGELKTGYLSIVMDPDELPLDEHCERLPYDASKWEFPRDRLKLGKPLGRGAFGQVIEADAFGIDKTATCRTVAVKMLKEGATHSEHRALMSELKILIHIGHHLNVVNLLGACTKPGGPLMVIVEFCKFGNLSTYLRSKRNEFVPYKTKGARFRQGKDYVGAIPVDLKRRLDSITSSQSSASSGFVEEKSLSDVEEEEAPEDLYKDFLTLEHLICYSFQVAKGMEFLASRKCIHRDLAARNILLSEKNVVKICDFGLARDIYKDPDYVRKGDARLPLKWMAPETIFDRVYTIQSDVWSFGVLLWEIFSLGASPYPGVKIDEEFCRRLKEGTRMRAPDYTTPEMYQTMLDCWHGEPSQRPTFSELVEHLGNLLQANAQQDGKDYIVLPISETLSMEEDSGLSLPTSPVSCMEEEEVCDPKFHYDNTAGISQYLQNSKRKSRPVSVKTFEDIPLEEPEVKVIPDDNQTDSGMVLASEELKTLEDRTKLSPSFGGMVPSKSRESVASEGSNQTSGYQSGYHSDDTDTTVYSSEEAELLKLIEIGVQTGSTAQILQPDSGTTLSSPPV
T5 sequence (P23443 whole entry): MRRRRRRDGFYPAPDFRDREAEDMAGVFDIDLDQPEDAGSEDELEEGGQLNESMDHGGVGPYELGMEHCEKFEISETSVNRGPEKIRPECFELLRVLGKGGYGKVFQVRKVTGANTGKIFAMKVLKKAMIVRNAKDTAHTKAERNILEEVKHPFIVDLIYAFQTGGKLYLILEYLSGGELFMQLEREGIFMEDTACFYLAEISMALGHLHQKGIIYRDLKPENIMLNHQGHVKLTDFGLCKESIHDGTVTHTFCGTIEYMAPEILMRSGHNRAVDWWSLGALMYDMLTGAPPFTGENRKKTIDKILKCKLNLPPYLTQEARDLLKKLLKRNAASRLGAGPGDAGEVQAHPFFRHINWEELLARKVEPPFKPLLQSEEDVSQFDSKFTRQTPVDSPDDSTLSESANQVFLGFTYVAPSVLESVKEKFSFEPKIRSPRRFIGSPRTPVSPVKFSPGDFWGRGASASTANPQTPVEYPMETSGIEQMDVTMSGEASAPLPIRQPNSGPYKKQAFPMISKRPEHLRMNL
T3 sequence (P49841 whole entry): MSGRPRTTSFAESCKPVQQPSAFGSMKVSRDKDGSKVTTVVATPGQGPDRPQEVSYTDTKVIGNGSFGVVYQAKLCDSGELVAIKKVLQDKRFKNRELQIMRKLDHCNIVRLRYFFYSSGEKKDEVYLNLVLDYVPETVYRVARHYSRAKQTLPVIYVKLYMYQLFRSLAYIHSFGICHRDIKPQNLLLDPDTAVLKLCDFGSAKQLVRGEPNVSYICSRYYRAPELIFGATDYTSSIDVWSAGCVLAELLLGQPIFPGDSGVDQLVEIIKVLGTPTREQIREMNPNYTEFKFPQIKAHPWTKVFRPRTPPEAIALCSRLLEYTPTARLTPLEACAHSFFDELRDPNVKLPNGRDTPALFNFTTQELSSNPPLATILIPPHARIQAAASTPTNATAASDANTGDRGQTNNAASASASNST
T2 sequence (P36888 27-993): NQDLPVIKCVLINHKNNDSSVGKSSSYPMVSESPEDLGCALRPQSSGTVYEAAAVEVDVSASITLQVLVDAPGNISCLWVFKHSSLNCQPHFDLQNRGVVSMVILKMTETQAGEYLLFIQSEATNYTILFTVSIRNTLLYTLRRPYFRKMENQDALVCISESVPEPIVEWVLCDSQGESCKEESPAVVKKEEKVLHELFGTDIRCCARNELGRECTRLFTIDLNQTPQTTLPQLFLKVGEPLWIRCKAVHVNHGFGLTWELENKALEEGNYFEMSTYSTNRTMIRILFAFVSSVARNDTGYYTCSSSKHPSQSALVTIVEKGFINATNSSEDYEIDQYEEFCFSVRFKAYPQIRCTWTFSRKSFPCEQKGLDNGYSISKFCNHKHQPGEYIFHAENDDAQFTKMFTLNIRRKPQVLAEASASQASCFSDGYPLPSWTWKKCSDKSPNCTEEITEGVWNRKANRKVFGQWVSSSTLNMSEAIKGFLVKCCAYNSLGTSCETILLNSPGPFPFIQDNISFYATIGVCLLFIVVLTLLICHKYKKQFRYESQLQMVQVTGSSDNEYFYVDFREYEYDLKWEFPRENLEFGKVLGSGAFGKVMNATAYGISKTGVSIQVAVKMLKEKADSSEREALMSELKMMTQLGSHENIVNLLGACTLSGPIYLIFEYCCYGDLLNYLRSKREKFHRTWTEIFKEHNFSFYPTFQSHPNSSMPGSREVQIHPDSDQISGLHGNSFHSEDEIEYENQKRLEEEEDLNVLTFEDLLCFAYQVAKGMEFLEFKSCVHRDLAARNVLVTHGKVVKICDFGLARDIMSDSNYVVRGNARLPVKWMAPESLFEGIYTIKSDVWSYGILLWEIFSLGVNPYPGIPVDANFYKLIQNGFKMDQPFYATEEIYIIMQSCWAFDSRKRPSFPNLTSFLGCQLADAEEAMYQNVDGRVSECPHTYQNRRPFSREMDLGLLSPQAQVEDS

## Cc1nc(N)nc(N)c1-c1ccc(Cl)c(Cl)c1 [metoprine, reference compound]
[1]; kinase assay
  IC50: > 20000 nM
[2]; [19]
  IC50: 59 nM
[2]; [20]
  IC50: 58.9 nM
[3]; [21]
  EC50: > 10000 nM
[4]; [22]
  EC50: > 10000 nM
[5]; kinase assay
  IC50: > 20000 nM
[6]; kinase assay
  IC50: > 20000 nM
[7]; [23]
  IC50: 630 nM
[7]; [24]
  IC50: 634 nM
[8]; [25]
  IC50: 2200 nM
[8]; [26]
  IC50: 2160 nM
[9]; kinase assay
  IC50: > 20000 nM
[10]; [27]
  IC50: 120 nM
[10]; [28]
  IC50: 117 nM
[11]; [29]
  IC50: 410 nM
[11]; [30]
  IC50: 413 nM
[12]
  EC50: > 10000 nM
[13]; [31]
  IC50: > 10000 nM
[14]; kinase assay
  IC50: > 20000 nM
[15]; [32]
  IC50: 510 nM
[15]; [33]
  IC50: 512 nM
[16]; [34]
  IC50: 2000 nM
[16]; [35]
  IC50: 2030 nM
[17]; [36]
  IC50: 930 nM
[17]; [37]
  IC50: 932 nM
[18]; [38]
  EC50: 29.9 nM
[18]; [39]
  EC50: 30 nM

## O=C1c2c(O)ccc(O)c2C(=O)c2c(NCCNCCO)ccc(NCCNCCO)c21 [mitoxantrone]
[1]; kinase assay
  IC50: > 20000 nM
[2]; [20]
  IC50: 1 nM
[3]; Rattus norvegicus, INS-1E, read-out: Insulin Secretion
  EC50: > 10000 nM
[4]; Homo sapiens, NCI-H716, read-out: GLP 1 Secretion
  EC50: > 10000 nM
[5]; kinase assay
  IC50: > 20000 nM
[6]; kinase assay
  IC50: > 20000 nM
[7]; [24]
  IC50: 1600 nM
[8]; [26]
  IC50: 1720 nM
[9]; kinase assay
  IC50: > 20000 nM
[10]; [28]
  IC50: 1030 nM
[11]; [30]
  IC50: 1230 nM
[12]
  EC50: > 10000 nM
[13]; [40]
  IC50: 4.4 nM
[14]; kinase assay
  IC50: > 20000 nM
[15]; [33]
  IC50: 1830 nM
[16]; [35]
  IC50: 7410 nM
[17]; [37]
  IC50: 7590 nM
[18]; [38]
  EC50: 30.3 nM

## Cc1ccc2nc(N)[nH]c(=O)c2c1Sc1ccncc1 [nolatrexed, reference compound]
[1]
  IC50: > 20000 nM
[2]; [19]
  IC50: 830 nM
[2]; [20]
  IC50: 830 nM
[3]; Rattus norvegicus, INS-1E; read-out: Ins. sec. EC50
  EC50: > 10000 nM
[4]; Homo sapiens, NCI-H716; read-out: GLP1 sec. EC50
  EC50: > 10000 nM
[5]
  IC50: > 20000 nM
[6]
  IC50: > 20000 nM
[7]; [23]
  IC50: > 20000 nM
[8]; SNU-C1, 72 h, Table 2, 72 h, Cell TiterGlo, non-adherent, 20 coded, read-out: SNU-C1 viab. IC50
  IC50: > 20000 nM
[9]
  IC50: > 20000 nM
[10]; Homo sapiens, RKO; Table 2; 72 h, Cell TiterGlo, non-adherent; 20 coded; read-out: RKO viab. IC50
  IC50: 340 nM
[10]; Homo sapiens, RKO; read-out: Basal_Viability ATP RKO
  IC50: 343 nM
[11]; HCT-116, 72 h, read-out: HCT-116 viab. IC50, Table 2, basal, 72 h, Cell TiterGlo, non-adherent, 20 coded
  IC50: 3500 nM
[11]; HCT-116, basal, read-out: Basal_Viability ATP HCT116
  IC50: 3500 nM
[12]
  G2/M IC50 / EC50: 20 (values shown as 20 indicate that the compound was tested in concentration-response and showed no response at the highest concentration tested (e.g. IC50 > 20 μM))
[12]; IC50 / EC50
  EC50: > 10000 nM
[13]; Homo sapiens, IC50 / EC50; endothelial tube area, ADSC/ECFC co-culture; read-out: Anti-Angiogenesis
  IC50: 7370 nM
[13]; Homo sapiens; read-out: Anti-Angio IC50
  IC50: 7400 nM
[14]
  IC50: 17800 nM
[15]; SW480, 72 h, Table 2, 72 h, Cell TiterGlo, non-adherent, 20 coded, read-out: SW480 viab. IC50
  IC50: 2200 nM
[15]; SW480, basal, read-out: Basal_Viability ATP SW480
  IC50: 2240 nM
[16]; COLO 320, Table 2, 72 h, Cell TiterGlo, non-adherent, 20 coded, read-out: Colo320 viab. IC50
  IC50: > 20000 nM
[17]; Homo sapiens, HT-29; Table 2; 72 h, Cell TiterGlo, non-adherent; 20 coded; read-out: HT-29 viab. IC50
  IC50: 4700 nM
[17]; Homo sapiens, HT-29; read-out: Basal_Viability ATP HT-29
  IC50: 4750 nM
[18]; Mus musculus, C2C12, IC50 / EC50; C2C12 beta-catenin translocation; read-out: Wnt Pathway
  EC50: 244 nM
[18]; Mus musculus, C2C12; read-out: Wnt pot. EC50
  EC50: 240 nM

## Cc1nc2ccc(CN(C)c3ccc(C(=O)N[C@@H](CCC(=O)O)C(=O)O)s3)cc2c(=O)[nH]1 [raltitrexed, reference compound]
[1]
  IC50: > 20000 nM
[2]; [19]
  IC50: 2 nM
[2]; [20]
  IC50: 2.3 nM
[3]; [21]
  EC50: > 10000 nM
[4]; [22]
  EC50: > 10000 nM
[5]
  IC50: > 20000 nM
[6]
  IC50: 3990 nM
[7]; [23]
  IC50: > 20000 nM
[8]; [25]
  IC50: > 20000 nM
[9]
  IC50: > 20000 nM
[10]; [27]
  IC50: 3 nM
[10]; [28]
  IC50: 2.88 nM
[11]; [29]
  IC50: 4 nM
[11]; [30]
  IC50: 4.24 nM
[12]
  EC50: > 10000 nM
[13]; [31]
  IC50: 350 nM
[13]; [40]
  IC50: 354 nM
[14]
  IC50: > 20000 nM
[15]; [32]
  IC50: 1 nM
[16]; [34]
  IC50: > 20000 nM
[17]; [36]
  IC50: > 20000 nM
[18]; [38]
  EC50: 4.2 nM
[18]; [39]
  EC50: 4 nM

## COc1cc(NCc2ccc3nc(N)nc(N)c3c2C)cc(OC)c1OC [trimetrexate, reference compound]
[1]
  IC50: > 20000 nM
[2]; [19]
  IC50: 4 nM
[2]; [20]
  IC50: 3.92 nM
[3]; [21]
  EC50: > 10000 nM
[4]; [22]
  EC50: > 10000 nM
[5]
  IC50: > 20000 nM
[6]
  IC50: > 20000 nM
[7]; [23]
  IC50: 200 nM
[7]; [24]
  IC50: 195 nM
[8]; [25]
  IC50: 5100 nM
[8]; [26]
  IC50: 5130 nM
[9]
  IC50: > 20000 nM
[10]; [27]
  IC50: 3 nM
[10]; [28]
  IC50: 2.72 nM
[11]; [29]
  IC50: 23 nM
[11]; [30]
  IC50: 23.1 nM
[12]
  EC50: > 10000 nM
[13]; [31]
  IC50: 4400 nM
[13]; [40]
  IC50: 4420 nM
[14]
  IC50: > 20000 nM
[15]; [32]
  IC50: 59 nM
[15]; [33]
  IC50: 59.1 nM
[16]; [34]
  IC50: 390 nM
[16]; [35]
  IC50: 386 nM
[17]; [36]
  IC50: 21 nM
[17]; [37]
  IC50: 21.2 nM
[18]; [38]
  EC50: 3.3 nM
[18]; [39]
  EC50: 3 nM
